Measured values reported in PMC9220351, “Evaluation of a Conformationally Constrained Indole Carboxamide as a Potential Efflux Pump Inhibitor in Pseudomonas aeruginosa” (Antibiotics, 2022).

Tested on: 34 MDR P. aeruginosa clinical isolates (CDC & FDA AR Isolate Bank)
Test: microbe, parasite or virus in culture
Assay type: cell-based, Pseudomonas aeruginosa
Settings: for Levofloxacin MIC fold difference: + labelled EPI […] (TXA09155 head: 50 µg/mL); for Levofloxacin MIC: alone or + labelled EPI […] (TXA09155 head: 50 µg/mL)
Description: P. aeruginosa ATCC 27853 was obtained from the American Type Culture Collection (ATCC; Manassas, VA, USA). P. aeruginosa multidrug-resistant isolates were obtained from the CDC and FDA Antibiotic Resistance Isolate Bank (Atlanta, GA, USA). P. aeruginosa DA7232 (gyrA-T83I, parC-S80L) was a kind gift from Prof. Dan I. Andersson, Uppsala University, Uppsala, Sweden, and has been characterized elsewhere. P. aeruginosa strains K767 (WT), K1455 (mexAB-oprM overexpressed), K2415 (mexXY-oprM overexpressed), and K3698 (oprM∆) were obtained from Prof. Keith Poole, Queen’s University, Kingston, Ontario, Canada and have been characterized elsewhere. Bacterial cells were grown in cation-adjusted Mueller Hinton (CAMH) media, brain heart infusion broth (BHI), or tryptic soy agar (TSA) plates were all obtained from Becton, Dickinson, and Company (BD; Franklin Lakes, NJ, USA). […] Azithromycin was purchased from Tokyo Chemical Industry (Portland, OR, USA). […] Ethidium bromide (EtBr) and glucose were purchased from VWR (Radnor, PA, USA). MC-04,124 and TXA01182 were synthesized at TAXIS Pharmaceuticals. Carbonyl cyanide 3-chlorophenylhydrazone (CCCP) was purchased from Enzo Life Sciences (Farmingdale, NY, USA). DiOC2 (3) and propidium iodide were obtained from Thermo Fisher Scientific (Waltham, MA, USA).
MIC assays were performed as described previously.

SMILES: NCCC[C@H](N)CNC(=O)c1cc2ccc(-c3ccc(F)cc3)cc2[nH]1 [TXA01182]
- Levofloxacin MIC fold difference (strain AR-0229): 8
- Levofloxacin MIC (strain AR-0229): 8 µg/mL
- Levofloxacin MIC fold difference (strain AR-0230): 4
- Levofloxacin MIC (strain AR-0230): 16 µg/mL
- Levofloxacin MIC fold difference (strain AR-0231): 2
- Levofloxacin MIC (strain AR-0231): 32 µg/mL
- Levofloxacin MIC fold difference (strain AR-0232): 8
- Levofloxacin MIC (strain AR-0232): 1 µg/mL
- Levofloxacin MIC fold difference (strain AR-0233): 8
- Levofloxacin MIC (strain AR-0233): 0.5 µg/mL
- Levofloxacin MIC fold difference (strain AR-0234): 8
- Levofloxacin MIC (strain AR-0234): 1 µg/mL
- Levofloxacin MIC fold difference (strain AR-0236): 4
- Levofloxacin MIC (strain AR-0236): 8 µg/mL
- Levofloxacin MIC fold difference (strain AR-0239): 8
- Levofloxacin MIC (strain AR-0239): 8 µg/mL
- Levofloxacin MIC fold difference (strain AR-0240): 8
- Levofloxacin MIC (strain AR-0240): 16 µg/mL
- Levofloxacin MIC fold difference (strain AR-0241): 4
- Levofloxacin MIC (strain AR-0241): 16 µg/mL
- Levofloxacin MIC fold difference (strain AR-0242): 8
- Levofloxacin MIC (strain AR-0242): 2 µg/mL
- Levofloxacin MIC fold difference (strain AR-0244): 16
- Levofloxacin MIC (strain AR-0244): 8 µg/mL
- Levofloxacin MIC fold difference (strain AR-0245): 4
- Levofloxacin MIC (strain AR-0245): 32 µg/mL
- Levofloxacin MIC fold difference (strain AR-0246): 4
- Levofloxacin MIC (strain AR-0246): 16 µg/mL
- Levofloxacin MIC fold difference (strain AR-0247): 64
- Levofloxacin MIC (strain AR-0247): 0.031 µg/mL
- Levofloxacin MIC fold difference (strain AR-0248): 8
- Levofloxacin MIC (strain AR-0248): 2 µg/mL
- Levofloxacin MIC fold difference (strain AR-0249): 8
- Levofloxacin MIC (strain AR-0249): 8 µg/mL
- Levofloxacin MIC fold difference (strain AR-0250): 4
- Levofloxacin MIC (strain AR-0250): 16 µg/mL
- Levofloxacin MIC fold difference (strain AR-0252): 16
- Levofloxacin MIC (strain AR-0252): 2 µg/mL
- Levofloxacin MIC fold difference (strain AR-0253): 16
- Levofloxacin MIC (strain AR-0253): 0.125 µg/mL
- Levofloxacin MIC fold difference (strain AR-0256): 8
- Levofloxacin MIC (strain AR-0256): 0.062 µg/mL
- Levofloxacin MIC fold difference (strain AR-0258): 4
- Levofloxacin MIC (strain AR-0258): 0.125 µg/mL
- Levofloxacin MIC fold difference (strain AR-0259): 1
- Levofloxacin MIC (strain AR-0259): 0.125 µg/mL
- Levofloxacin MIC fold difference (strain AR-0260): 4
- Levofloxacin MIC (strain AR-0260): 16 µg/mL
- Levofloxacin MIC fold difference (strain AR-0261): 16
- Levofloxacin MIC (strain AR-0261): 0.5 µg/mL
- Levofloxacin MIC fold difference (strain AR-0262): 16
- Levofloxacin MIC (strain AR-0262): 0.25 µg/mL
- Levofloxacin MIC fold difference (strain AR-0264): 8
- Levofloxacin MIC (strain AR-0264): 4 µg/mL
- Levofloxacin MIC fold difference (strain AR-0265): 8
- Levofloxacin MIC (strain AR-0265): 8 µg/mL
- Levofloxacin MIC fold difference (strain AR-0266): 4
- Levofloxacin MIC (strain AR-0266): 8 µg/mL
- Levofloxacin MIC fold difference (strain AR-0267): 16
- Levofloxacin MIC (strain AR-0267): 2 µg/mL
- Levofloxacin MIC fold difference (strain AR-0269): 8
- Levofloxacin MIC (strain AR-0269): 4 µg/mL
- Levofloxacin MIC fold difference (strain AR-0270): 16
- Levofloxacin MIC (strain AR-0270): 2 µg/mL
- Levofloxacin MIC fold difference (strain AR-0271): 4
- Levofloxacin MIC (strain AR-0271): 8 µg/mL
- Levofloxacin MIC fold difference (strain AR-0272): 4
- Levofloxacin MIC (strain AR-0272): 4 µg/mL
